Laboratory results taken from patent US20260356860A1, “2-SUBSTITUTED 3,4A,5,7,8,8A-HEXAHYDRO-4H-THIOPYRANO[4,3-DJPYRIMIDIN-4-ONES FOR WOUND TREATMENT” (priority 2022, published 2026).

Experiments:
Type in all cases: cell-based
[1] = system: S. aureus (derived from ATCC ® 6538 ™); test: Bacteriostasis, log reduction; details: S. aureus ATCC 6538
Description: (§1) In order to assess the log reduction capabilities of compounds of Formula (1), testing was performed on organisms that are found in acute and chronic wounds. Triplicate tubes were prepared for each bacteria using 50 μL of inoculum (about 1×10^6 CFU/mL) which was added to 450 μL of compound solution (compound of Formula (I)) (or 100 μL of inoculum in 900 μL of compound solution), resulting in a final inoculum of about 1×10^5 CFU/mL, as shown in Table 4.
(§2) Tubes were mixed with a vortex and then incubated in a shaking incubator at 175 RPM and 35° C. to 37° C.
(§3) Positive control in Tables 5a and 5b was 1 mL of 0.89% saline with 1 mL of the 1×10^6 CFU/mL of the organism.
(§4) For Compounds 1, 7, 8, 10, and 18 in Tables 6, 7-A, 7-B, 8, 9, 10-A, 10-B, and 11: The compound solutions were prepared with compound (30 mg), polysorbate 20 (1.6 mL), butylene glycol (1.6 mL), phosphatidyl choline (0.66 g), ethanol (1.6 mL), hydroxypropyl cellulose (0.26 g), and ultra pure water (24.9 mL).
(§5) XAV939 Control in Table X1 was XAV939 (30 mg), polysorbate 20 (1.6 mL), butylene glycol (1.6 mL), phosphatidyl choline (0.66 g), ethanol (1.6 mL), ultra pure water (24.9 mL), and hydroxypropyl cellulose (0.26 g).
(§6) GO-HA Control in Table X2 was GO-HA (30 mg), polysorbate 20 (1.6 mL), butylene glycol (1.6 mL), phosphatidyl choline (0.66 g), ethanol (1.6 mL), ultra pure water (24.9 mL), and hydroxypropyl cellulose (0.26 g).
(§7) For Compound 18+GO-HA in Tables 6 and X4: compound 18 (45 mg), GO-HA (45 mg), polysorbate 20 (2 mL), butylene glycol (2 mL), phosphotidyl choline (0.5 g), ethanol (2 mL), hydroxypropyl cellulose (0.40 g), and ultra pure water (40 mL).
(§8) For XAV939+GO-HA in Tables 6 and X3-A, and X3-B: XAV939 (45 mg), GO-HA (45 mg), butylene glycol (2 mL), polysorbate 20 (2 mL), phosphotidyl choline (0.5 g), ethanol (2 mL), hydroxypropyl cellulose (0.40 g), and ultra pure water (40 mL).
(§9) Testing was performed at two time points: 18 to 24 hours, and […].

[2] = system: P. vulgaris (derived from ATCC ® 8427 ™); test: Bacteriostasis, log reduction; details: P. vulgaris ATCC 8427
Description: as §1, §2, §3, §4, §5, §6, §7, §8, §9

[3] = system: S. epidermidis (derived from ATCC ® 14990 ™); test: Bacteriostasis, log reduction; details: S. epidermidis ATCC 14990
Description: as §1, §2, §3, §4, §5, §6, §7, §8, §9

[4] = system: S. maltophilia (derived from ATCC ® 13637 ™); test: Bacteriostasis, log reduction; details: S. maltophilia ATCC 13637
Description: as §1, §2, §3, §4, §5, §6, §7, §8, §9

[5] = system: E. coli 0157:H7 (derived from ATCC ® 12900 ™); test: Bacteriostasis, log reduction; details: E. coli 0157:H7 ATCC 12900
Description: as §1, §2, §3, §4, §5, §6, §7, §8, §9

[6] = system: E. coli (derived from ATCC ® 25922 ™); test: Bacteriostasis, log reduction; details: E. coli ATCC 25922
Description: as §1, §2, §3, §4, §5, §6, §7, §8, §9

[7] = system: E. faecalis (derived from ATCC ® 19433 ™); test: Bacteriostasis, log reduction; details: E. faecalis ATCC 19433
Description: as §1, §2, §3, §4, §5, §6, §7, §8, §9

[8] = system: P. aeruginosa (derived from ATCC ® 9027 ™); test: Bacteriostasis, log reduction; details: P. aeruginosa ATCC 9027
Description: as §1, §2, §3, §4, §5, §6, §7, §8, §9

[9] = system: K. pneumoniae (derived from ATCC ® 10031 ™); test: Bacteriostasis, log reduction; details: K. pneumoniae ATCC 10031
Description: as §1, §2, §3, §4, §5, §6, §7, §8, §9

[10] = system: E. coli (derived from ATCC ® 8739 ™); test: Bacteriostasis, log reduction; details: E. coli ATCC 8739
Description: as §1, §2, §3, §4, §5, §6, §7, §8, §9

[11] = system: P. aeruginosa (derived from ATCC ® 15442 ™); test: Bacteriostasis, log reduction; details: P. aeruginosa ATCC 15442
Description: as §1, §2, §3, §4, §5, §6, §7, §8, §9

[12] = system: bacteria; test: Bacteriostasis: growth inhibition over the panel of bacteria; details: 72 h
Description: as §1, §2, §4, §9

## O=c1[nH]c(-c2ccc(B(O)O)cc2)nc2c1CSCC2 [Compound 1, (4-(4-oxo-3,5,7,8-tetrahydro-4H-thiopyrano[4,3-d]pyrimidin-2-yl)phenyl)boronic acid]
[1]; 24 h
  Average result: 8.7 × 10^4
  Log Reduction: 0.4
  Log Value: 4.9
[1]; 72 h
  Average result: <800
  Log Reduction: >2.4
  Log Value: <2.9
[2]; 24 h
  Average result: <200
  Log Reduction: >3.6
  Log Value: <2.3
[2]; 72 h
  Average result: <200
  Log Reduction: >3.6
  Log Value: <2.3
[3]; 24 h
  Average result: 3.1 × 10^5
  Log Reduction: No
  Log Value: 5.5
[3]; 72 h
  Average result: <200
  Log Reduction: >2.5
  Log Value: <2.3
[4]; 24 h
  Average result: <200
  Log Reduction: >2.8
  Log Value: <2.3
[4]; 72 h
  Average result: <200
  Log Reduction: >2.8
  Log Value: <2.3
[5]; 24 h
  Average result: 5.5 × 10^3
  Log Reduction: 0.5
  Log Value: 3.7
[5]; 72 h
  Average result: <200
  Log Reduction: >1.9
  Log Value: <2.3
[6]; 24 h
  Average result: <200
  Log Reduction: >3.1
  Log Value: <2.3
[6]; 72 h
  Average result: <200
  Log Reduction: >3.1
  Log Value: <2.3
[7]; 24 h
  Average result: 1.1 × 10^3
  Log Reduction: 1.8
  Log Value: 3.0
[7]; 72 h
  Average result: 1.1 × 10^4
  Log Reduction: 0.7
  Log Value: 4.1
[8]; 24 h
  Average result: <200
  Log Reduction: >3.0
  Log Value: <2.3
[8]; 72 h
  Average result: <200
  Log Reduction: >3.0
  Log Value: <2.3
[9]; 24 h
  Average result: 1.1 × 10^3
  Log Reduction: 1.8
  Log Value: 3.0
[9]; 72 h
  Average result: <200
  Log Reduction: >2.5
  Log Value: <2.3
[10]; 24 h
  Average result: 1.3 × 10^4
  Log Reduction: 1.2
  Log Value: 4.1
[10]; 72 h
  Average result: <200
  Log Reduction: >3.0
  Log Value: <2.3
[11]; 24 h
  Average result: <200
  Log Reduction: >3.1
  Log Value: <2.3
[11]; 72 h
  Average result: <200
  Log Reduction: >3.1
  Log Value: <2.3
[12]; test 1
  number of bacteria with inhibited growth: 6 of 7
[12]; test 2
  number of bacteria with inhibited growth: 7 of 7
